By inhibition is commonly meant the percentage by which the read-out fell short of the control.

Structures are written as SMILES.

Format in all cases: cell-based
Assay [1] relates to Vemurafenib-resistant malignant melanoma cells A375R (BRafV600E). Nature of the assay: Cell growth inhibition, drug-resistant malignant melanoma A375R. The note with it: Homo sapiens, in the presence of 1 μM PLX (Vemurafenib), 72 hours. Here is the method: The human malignant melanoma cell lines A375 and HT 144, each having BRafV600E mutation, were cultured in a medium containing 10% FBS at 37° C. in the presence of 5% CO2. At the time point in which the cells became confluent, 1 μM Vemurafenib, a BRaf inhibitor, was added to the medium, and the cells were then cultured in the presence of Vemurafenib for 1 month or more (during which the medium was exchanged every 1 week), so as to acquire Vemurafenib-resistant malignant melanoma cells A375R and HT 144R. The resulting resistant cells were suspended in a medium containing 10% FBS, and then seeded on a 96-well plate to an amount of 1 to 2×10^4 cells/well. The cells were cultured at 37° C. in the presence of 5% CO2 overnight. Thereafter, the medium was exchanged with a medium containing 0.5% FBS, to which each compound solution (final DMSO concentration: 1%) and 1 μM Vemurafenib had been added, and the cells were then cultured at 37° C. in the presence of 5% CO2 for 72 hours.
Thereafter, the number of viable cells was measured using Cell Counting Reagent (Nacalai Tesque) in accordance with the manufacturer's instructions. Inhibition by the test compound was determined according to the following equation: […]
Hereafter, Inhibition (%) by 3.3 μM compound is shown.

In assay [2] the test system is small cell lung cancer cells SHP77 (K-RasG12V). Nature of the assay: Cell growth inhibition, suspension cells SHP77. The note with it: Homo sapiens, 1 μM, 72 hours, read-out: SHP77 (KRasG12V) % inhibition at 1 μM. In short, it runs like this: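 Suspension cells, 2 to 4×10^4 per well, cultured with compound in medium with 0.5% FBS (1% DMSO final) for 72 h at 37° C, 5% CO2. Viable cells counted with Cell Counting Reagent; inhibition calculated relative to controls.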

Assay [3] relates to phosphorylated MEK (pMEK) in HL60 cells. The assay is described as follows: Ras-Raf signaling inhibition at culture cell level, pMEK. The note with it: Homo sapiens, HL-60; HL60 (N-RasQ61L), 1 μM test compound, 3 hours. Here is the method: The Ras-Raf signaling inhibitory activity of the compound of the present invention at a culture cell level was evaluated by the following method.
The HL60 cells described in Test Example 2 suspended in a medium containing 0.5% (v/v) FBS with each compound solution (final DMSO concentration: 1%), were seeded on a 12-well plate (2 to 4×10^5 cells/well), and the resulting mixture was then cultured at 37° C. in the presence of 5% CO2 for 3 hours.
After completion of the cell culture, proteins were extracted from the cells, using RIPA Buffer (Nacalai Tesque) containing a mixture of protease inhibitors and phosphatase inhibitors. An equivalent amount of protein was separated by standard SDS-PAGE and was then transferred onto a PVDF membrane. In order to detect the activation (phosphorylation) of MEK and ERK, downstream molecules of the Ras-Raf signaling pathway, the membrane was probed with 1000-fold diluted primary antibodies {phosphorylated MEK (pMEK: #9121), phosphorylated ERK (pERK: #9101), total MEK (tMEK: #9122), and total ERK (tERK: 9102); all from Cell signaling}, and then with a 1000-fold diluted horseradish peroxidase-labeled secondary antibody against rabbit immunoglobulin G. The immunoreactive signals were colored with EzWestLumi One (ATTO), and were then detected by Fusion FX (Vilber). Signal intensity was quantified by pixel counting. Inhibition by the test compound was determined according to the following equation: […]

For `CC(=O)N1/C(=C\c2nc3cc(C(=O)N4CCOCC4)ccc3s2)C(=O)c2ccccc21` [Example 47, (Z)-1-acetyl-2-((5-(morpholine-4-carbonyl)benzo [d]thiazol-2-yl)-methylene)-indolin-3-one], the inhibition at 3.3 µM in assay [1] turned out to be 90%. Also, the figures for the inhibition at 1 µM in assay [2] and in assay [3] were 61% and 88%, respectively.

For the origin of these results see US20250091994A1, “RAS/RAF BINDING INHIBITOR COMPOUND” (NATIONAL UNIVERSITY CORPORATION KOBE UNIVERSITY, priority 2021, published 2025).
